Among the data in patent US12421249B2, “Inhibitors of APOL1 and methods of using same” (Vertex Pharmaceuticals Incorporated, priority 2020, dated 2025) are IC50 values, retold here.

In the assay the target is T1, APOL1 G1 (Homo sapiens, UniProt O14791, I384M/S342G).
T1 sequence (O14791 28-398 S342G/I384M): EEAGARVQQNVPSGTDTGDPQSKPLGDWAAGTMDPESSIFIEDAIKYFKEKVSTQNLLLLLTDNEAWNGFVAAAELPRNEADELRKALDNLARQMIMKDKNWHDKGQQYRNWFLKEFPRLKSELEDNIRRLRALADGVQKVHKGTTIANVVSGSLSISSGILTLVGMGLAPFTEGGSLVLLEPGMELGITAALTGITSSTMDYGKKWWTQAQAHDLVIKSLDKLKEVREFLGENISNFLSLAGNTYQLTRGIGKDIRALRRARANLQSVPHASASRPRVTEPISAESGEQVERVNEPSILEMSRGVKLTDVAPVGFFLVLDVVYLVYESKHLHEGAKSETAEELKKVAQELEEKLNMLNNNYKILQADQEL
Kind of assay: MultiTox-Fluor Multiplex Cytotoxicity Assay in tet-inducible APOL1 G1 T-REx-HEK293 cells (clone G1 DC3.25). The assay is classed as cell-based. The arrangement: expressed in transfected cells; host or cells: T-REx HEK293, pAAVS1-Puro-APOL1 G1, clone G1 DC3.25. Particulars: Multi-Tox Assay; IP50 = IC50 for cell proliferation; APOL1 variant cell line not given. The protocol: The MultiTox-Fluor Multiplex Cytotoxicity Assay is a single-reagent-addition, homogeneous, fluorescence assay that measures the number of live and dead cells simultaneously in culture wells. The assay measures cell viability and cytotoxicity by detecting two distinct protease activities. The live-cell protease activity is restricted to intact viable cells and is measured using a fluorogenic, cell-permeant peptide glycyl-phenylalanylamino fluorocoumarin (GF-AFC) substrate. The substrate enters intact cells, where it is cleaved to generate a fluorescent signal proportional to the number of living cells. […] A second, cell-impermeant, fluorogenic peptide substrate (bis-AAF-R110 Substrate) is used to measure dead-cell protease that has been released from cells that have lost membrane integrity. A ratio of dead to live cells is used to normalize data.
Briefly, the tet-inducible transgenic APOL1 T-REx-HEK293 cell lines were incubated with 50 ng/mL tet to induce APOL1 in the presence of 3-(2-(4-fluorophenyl)-1H-indol-3-yl)-N-((3S,4R)-4-hydroxy-2-oxopyrrolidin-3-yl)propenamide at […], 0.0045, 0.0015, 0.0005 μM in duplicate for 24 hours in a humidified 37° C. incubator. The MultiTox reagent was added to each well and placed back in the incubator for an additional 30 minutes. The plate was read on the EnVision plate reader. A ratio of dead to live cells was used to normalize, and data was imported, analyzed and fit using Genedata Screener (Basel, Switzerland) software. Data was normalized using percent of control, no tet (100% viability), and 50 ng/mL tet treated (0% viability), and fit using Smart Fit. The reagents, methods, and complete protocol for the MultiTox assay are described below.
Human embryonic kidney (HEK293) cell lines containing a tet-inducible expression system (T-REx™; Invitrogen, Carlsbad, CA) and Adeno-associated virus site 1 pAAVS1-Puro-APOL1 G0 or pAAVS1-Puro-APOL1 G1 or pAAVS1-Puro-APOL1 G2 Clones G0 DC2.13, G1 DC3.25, and G2 DC4.44 were grown in a T-225 flask at ˜90% confluency in cell growth media (DMEM, 10% Tet-free FBS, 2 mM L-glutamine, 100 Units/mL penicillin-streptomycin, 5 μg/mL blasticidin S HCl, 1 μg/mL puromycin dihydrochloride). Cells were washed with DPBS and then trypsinized to dissociate from the flask. Media was used to quench the trypsin, cells were then pelleted at 200 g and resuspended in fresh cell assay media (DMEM, 2% Tet-free FBS, 2 mM L-glutamine, 100 Units/mL penicillin-streptomycin). Cells were counted and diluted to 1.17×10^6 cells/mL. 20 μL of cells (23,400/well) were dispensed to every well of a 384-well Poly-D-Lysine coated plate using the Multidrop dispenser. The plates were then incubated at room temperature for one hour.
Tetracycline is needed to induce APOL1 expression. 1 mg/mL tet stock in water was diluted to 250 ng/mL (5×) in cell assay media. 60 μL of cell assay media (no tet control) was dispensed in columns 1 and 24, and 60 μL of 5× tet was dispensed in 384-PP-round bottom plate in columns 2 to 23 with the Multidrop dispenser.
Assay ready plates from the Global Compound Archive were ordered using template 384_APOL1Cell_DR10n2_50 μM_v3. Compounds were dispensed at 200 nL in DMSO. The final top concentration was 10 μM with a 10 point 3-fold dilution in duplicate in the MultiTox assay.
20 μL were transferred from the 5× tet plate to the ARP and mixed, then 5 μL of 5× tet and the compounds were transferred to the cell plate and mixed using the Bravo. The cell plate was placed in the humidified 37° C. 5% CO2 incubator for 24 hours.
The MultiTox-Fluor Multiplex Cytotoxicity Assay was performed in accordance with the manufacturer's protocol. After cells were incubated with tet and compound for 24 hours, 25 μL of 1× MultiTox reagent was added to each well using the Multidrop dispenser; the plates were placed on a plate shaker (600 rpm) for 2 minutes, then centrifuged briefly and placed back in the 37° C. incubator for 30 minutes. […]

For orientation: IC50 means the concentration at which inhibition is half-maximal. The low end stands for greater potency in that assay, the high end for weaker potency in that assay. As to `[2H]C1([2H])O[C@@]2(C[C@@H](c3cn(C)nn3)N[C@@H](C)C2)c2sc(Cl)cc2[C@]1([2H])O` [Compound 385, (2S,4S,4′S,6S)-2′-chloro-4′,5′,5′-trideuterio-2-methyl-6-(1-methyltriazol-4-yl)spiro[piperidine-4,7′-thieno[2,3-c]pyran]-4′-ol], the IC50 is under 50 nM.
